Measured values reported in patent US6355430B1, “Diagnostic and screening methods employing KIAA0101” (Millennium Pharmaceuticals, Inc., priority 1998, dated 2002).

Test system: KIAA0101 expression in LNCaP cells
Assay: Expression of KIAA0101 in LNCaP prostate cancer cells treated with casodex
Type: cell-based, human
Procedure: In order to examine the effect of casodex, an anti-androgen, on the expression of KIAA0101, LNCaP cells (androgen-sensitive prostate cancer cells) were grown to 70% confluence in RPMI-1640 (10% FBS). The cultures were then pretreated for 24 hours in dye-free RPMI-1640 containing 5% charcoal stripped serum. The cultures were then treated with either 1 nM R1881 or 100 […] casodex in RPMI-1640 containing 5% charcoal stripped serum prior to harvesting and extraction of total mRNA for expression analysis.

Structure (SMILES): CC(O)(CS(=O)(=O)c1ccc(F)cc1)C(=O)Nc1ccc(C#N)c(C(F)(F)F)c1 (centres unmarked) [casodex]
- decrease (drop) in KIAA0101 expression (LNCaP cells (androgen-responsive prostate cancer cell line), in the presence of casodex): 3 fold
- KIAA0101 expression lower in the presence of casodex than in the presence of R1881 (LNCaP cells, casodex versus R1881 (androgen agonist, 1 nM)): 3 fold
